As usually defined, the IC50 is the concentration needed to halve the response being measured.

Here are results for 38 molecules from patent publication US10710986B2, “PD-1/PD-L1 inhibitors” (Gilead Sciences, Inc., priority 2018, dated 2020).

For this assay, the target named is PD-1/PD-L1 (Homo sapiens (Human), UniProt Q9NZQ7). Briefly: PD-1/PD-L1 biochemical protein-protein interaction assay (ALPHA). To be noted: 0.3 nM His tagged PD-L1, 2.5 nM biotinylated Fc-PD-1, 60 minutes at 25° C., read-out: IC50 PD-L1-PD1.
PD-1/PD-L1, sequence (Q9NZQ7 19-238): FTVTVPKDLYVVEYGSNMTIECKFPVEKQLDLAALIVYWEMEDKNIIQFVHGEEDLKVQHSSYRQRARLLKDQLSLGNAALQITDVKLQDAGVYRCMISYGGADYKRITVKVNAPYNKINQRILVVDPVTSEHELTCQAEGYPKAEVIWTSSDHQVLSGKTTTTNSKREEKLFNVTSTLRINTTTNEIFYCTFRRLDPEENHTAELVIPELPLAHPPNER
Regarding `COc1nc(-c2cccc(-c3cccc(-c4cnc(CN5C6COCC5C6)c(OC)n4)c3Cl)c2Cl)cnc1CN1C2COCC1C2` [compound 474], the IC50 was 0.219 nM.

`COc1nc(-c2cccc(-c3cccc(-c4cnc(CNC56CC(C5)C6)c(OC)n4)c3Cl)c2Cl)cnc1CNC12CC(C1)C2` [compound 86]: the IC50 is 3.05 nM.

For `COc1nc(-c2cccc(-c3cccc(-c4cnc(CN[C@@H]5CNC(=O)C5)c(OC)n4)c3Cl)c2Cl)cnc1CNC[C@H]1CCC(=O)N1` [compound 199], the IC50 turned out to be 0.126 nM. In the case of `COc1nc(-c2cccc(-c3cccc(-c4cnc(CN5CC(O)C5)c(OC)n4)c3Cl)c2Cl)cnc1CNC[C@@H]1CCC(=O)N1` [compound 379], the IC50 came to 0.155 nM. For the molecule `COc1nc(-c2cccc(-c3cccc(-c4cnc(CN5CCC(N6CCNC6=O)C5)c(OC)n4)c3Cl)c2Cl)cnc1CNC[C@@H]1CCC(=O)N1` (some centres unmarked) [compound 528], the IC50 was found to be 0.064 nM.

With `COc1nc(-c2cccc(-c3cccc(-c4cnc(CN[C@@H]5C[C@@H]5C(F)F)c(OC)n4)c3Cl)c2Cl)cnc1CNC[C@@H]1CCC(=O)N1` [compound 180], the half-inhibitory concentration (IC50) was found to be 1.03 nM. Turning to `CCN(CCc1cn[nH]c1)Cc1ncc(-c2cccc(-c3cccc(-c4cnc(CNC[C@@H]5CCC(=O)N5)c(OC)n4)c3Cl)c2Cl)nc1OC` [compound 48], the IC50 was 0.822 nM.

For `CNc1nc(-c2cccc(-c3cccc(-c4cnc(CNC[C@@H]5CCC(=O)N5)c(NC)n4)c3Cl)c2Cl)cnc1CNC[C@@H]1CCC(=O)N1` [compound 80], the IC50 came out at 0.36 nM. On to `CSc1nc(-c2cccc(-c3cccc(-c4cnc(CN5CC6(CNC(=O)C6)C5)c(SC)n4)c3Cl)c2Cl)cnc1CN1CC2(CNC(=O)C2)C1` [compound 89], for which the IC50 came to 0.286 nM. On to `COc1nc(-c2cccc(-c3cccc(-c4cnc(CN5CCC(C6CCCO6)C5)c(OC)n4)c3Cl)c2Cl)cnc1CNC[C@@H]1CCC(=O)N1` (some centres unmarked) [compound 409], for which the concentration for half-maximal inhibition (IC50) worked out at 0.124 nM. As for `COc1nc(-c2cccc(-c3cccc(-c4cnc(CN[C@H]5CC[C@@H](CO)C5)c(OC)n4)c3Cl)c2Cl)cnc1CNC[C@@H]1CCC(=O)N1` [compound 648], the concentration for half-maximal inhibition (IC50) came out at 0.08 nM. To `COc1nc(-c2cccc(-c3cccc(-c4cnc(CN5CCCC(F)(CO)C5)c(OC)n4)c3Cl)c2Cl)cnc1CNC[C@@H]1CCC(=O)N1` (some centres unmarked) [compound 261] belongs 0.128 nM. Consider `COc1nc(-c2cccc(-c3cccc(-c4cnc(CN5CC(O)C5)c(OC)n4)c3Br)c2Br)cnc1CN1CC(O)C1` [compound 112], for which the IC50 was determined as 0.076 nM. As for `COc1nc(-c2cccc(-c3cccc(-c4cnc(CN(C)C[C@H]5C[C@H](O)C5)c(OC)n4)c3Cl)c2Cl)cnc1CNC[C@@H]1CCC(=O)N1` [compound 459], the figure is 0.344 nM; as for `COc1nc(-c2cccc(-c3cccc(-c4cnc(CN5CCC(C6CCOC6)C5)c(OC)n4)c3Cl)c2Cl)cnc1CNC[C@@H]1CCC(=O)N1` (some centres unmarked) [compound 411], 0.321 nM; as for `COc1nc(-c2cccc(-c3cccc(-c4cnc(CN5CC[C@@H](O)[C@H](F)C5)c(OC)n4)c3Cl)c2Cl)cnc1CNC[C@@H]1CCC(=O)N1` [compound 279], 0.343 nM. In the case of `COc1nc(-c2cccc(-c3cccc(-c4cnc(CN5CC[C@@H](CNC(C)=O)C5)c(OC)n4)c3Cl)c2Cl)cnc1CN1CC[C@@H](CNC(C)=O)C1` [compound 663], the IC50 worked out at 0.281 nM. As for `COc1nc(-c2cccc(-c3cccc(-c4cnc(CN5CC[C@H](CO)C5)c(OC)n4)c3Cl)c2Cl)cnc1CNC[C@@H]1CCC(=O)N1` [compound 625], the figure is 0.074 nM; as for `COc1nc(-c2cccc(-c3cccc(-c4cnc(CNC[C@@H]5CCC(=O)N5)c(OC)n4)c3Cl)c2Cl)cnc1CNCC(O)C(F)(F)F` (some centres unmarked) [compound 47], 0.16 nM; as for `COc1nc(-c2cccc(-c3cccc(-c4cnc5c(CNC[C@H]6C[C@H](O)C6)cn(C)c5n4)c3Cl)c2Cl)cnc1CNC[C@H]1CCC(=O)N1` [compound 603], 0.073 nM.

Regarding `COc1nc(-c2cccc(-c3cccc(-c4cnc(CN[C@H]5CC[C@@H](C#N)C5)c(OC)n4)c3Cl)c2Cl)cnc1CNC[C@@H]1CCC(=O)N1` [compound 458], the IC50 came to 0.087 nM.

`COc1nc(-c2cccc(-c3cccc(-c4cnc(CN5C[C@@H](N)CCC5=O)c(OC)n4)c3Cl)c2Cl)cnc1CNC[C@@H]1CCC(=O)N1` [compound 36]: the IC50 amounted to 1.29 nM.

For the molecule `COC[C@H]1C[C@@H](NCc2ncc(-c3cccc(-c4cccc(-c5cnc(CNC[C@@H]6CCC(=O)N6)c(OC)n5)c4Cl)c3Cl)nc2OC)C1` [compound 221], the IC50 was found to be 0.227 nM.

For the molecule `COc1nc(-c2cccc(-c3cccc(-c4cnc(CN5CCN[C@H](C6CC6)C5)c(OC)n4)c3Cl)c2Cl)cnc1CNC[C@@H]1CCC(=O)N1` [compound 259], the 50% inhibitory concentration (IC50) is 0.273 nM.

For `COc1nc(-c2cccc(-c3cccc(-c4cnc(CN5CC(OC)C5)c(OC)n4)c3Cl)c2F)cnc1CN1CC(OC)C1` [compound 3], the half-maximal inhibitory concentration (IC50) is 0.318 nM. To `CCc1nc(-c2cccc(-c3cccc(-c4cnc(CN5CC(O)C5)c(CC)n4)c3Cl)c2Cl)cnc1CN1CC(O)C1` [compound 82] belongs 0.335 nM; to `COc1nc(-c2cccc(-c3cccc(-c4cnc(CN5CCC(c6cnccn6)C5)c(OC)n4)c3Cl)c2Cl)cnc1CNC[C@@H]1CCC(=O)N1` (some centres unmarked) [compound 404], 0.07 nM. To `COc1nc(-c2cccc(-c3cccc(-c4cnc(CNCC5CN(S(C)(=O)=O)C5)c(OC)n4)c3Cl)c2Cl)cnc1CNCC1CN(S(C)(=O)=O)C1` [compound 546] belongs 0.089 nM; to `COc1nc(-c2cccc(-c3cccc(-c4cnc(CN5CCC[C@H]5CO)c(OC)n4)c3Cl)c2Cl)cnc1CNC[C@@H]1CCC(=O)N1` [compound 24], 0.179 nM; to `COc1nc(-c2cccc(-c3cccc(-c4cnc(CNC[C@@H]5CCC(=O)N5)c(OC)n4)c3Cl)c2Cl)ccc1CN[C@@H]1CCOC1` [compound 170], 0.227 nM. As for `COc1nc(-c2cccc(-c3cccc(-c4cnc(CNC[C@@H]5COC(=O)N5)c(OC)n4)c3Cl)c2Cl)cnc1CNC[C@@H]1CCC(=O)N1` [compound 246], the figure is 0.21 nM; as for `COc1nc(-c2cccc(-c3cccc(-c4cnc(CN5CC6(C5)CN(C(C)=O)C6)c(OC)n4)c3Cl)c2Cl)cnc1CN` [compound 597], 0.129 nM. Consider `COc1nc(-c2cccc(-c3cccc(-c4cnc(CNCC5CCN(C(N)=O)C5)c(OC)n4)c3Cl)c2Cl)cnc1CNCC1CCN(C(N)=O)C1` (centres unmarked) [compound 467], for which the IC50 turned out to be 0.146 nM. As for `COc1nc(-c2cccc(-c3cccc(-c4cnc(CN5CC6(CCS6(=O)=O)C5)c(OC)n4)c3Cl)c2Cl)cnc1CNC[C@@H]1CCC(=O)N1` [compound 301], the IC50 is 0.25 nM. On to `COc1nc(-c2cccc(-c3cccc(-c4cnc(CN5CCCC5C(C)(C)O)c(OC)n4)c3Cl)c2Cl)cnc1CNC[C@@H]1CCC(=O)N1` (some centres unmarked) [compound 483], for which the IC50 worked out at 0.341 nM.

Turning to `COc1nc(-c2cccc(-c3cccc(-c4cnc(CNC[C@H]5C[C@H](OC)C5)c(OC)n4)c3Cl)c2Cl)cnc1CNC[C@@H]1CCC(=O)N1` [compound 565], the IC50 came out at 0.43 nM. As for `COc1nc(-c2cccc(-c3cccc(-c4cnc(CN5CCN[C@H](C)C5)c(OC)n4)c3Cl)c2Cl)cnc1CNC[C@@H]1CCC(=O)N1` [compound 251], the figure is 0.07 nM; as for `COc1nc(-c2cccc(-c3cccc(-c4cnc(CNC[C@@H]5CCC(=O)N5)c(OC)n4)c3Cl)c2Cl)cnc1CNCCS(N)(=O)=O` [compound 43], 0.083 nM.
